Here are results for four compounds from patent US20240269155A1, “METHODS AND USES OF BORON COMPOUNDS IN THE TREATMENT OF NONTUBERCULOUS MYCOBACTERIUM INFECTIONS AND PHARMACEUTICAL COMPOSITIONS FOR TREATMENT OF SAME” (priority 2022, published 2024).

Converted amounts (≈) assume the structure as drawn. Read-outs that look alike come from different tables or passages of the source.

Data set [1] is described as follows: Lung distribution study in mouse. It counts as in vivo, Balb/C mouse. The settings on record: 10 mg/kg po.
Another data set concerns M. intercelleulare. Briefly: MIC determination (CLSI M24-A2). The settings on record: Mycobacterium, read-out: MIC. It counts as cell-based, Mycobacterium intercelleulare. The method, then: (§1) The in vitro activity of the parent boron compound described herein was assessed by standard testing procedures such as the determination of minimum inhibitory concentration (MIC) as described in Clinical and Laboratory Standards Institute (CLSI) document M24-A2. Lower MIC values indicate high antibacterial activity, while higher MIC values indicate a reduced antibacterial activity. Generally, MIC values of about ≤2 mg/L indicate a good therapeutic (i.e., suitable for therapy) potency for antibacterial drugs, while MIC values of ≥8 mg/L indicate a lack of therapeutically useful activity for a test compound.
(§2) (MIC ranges from 0.063-2 mg/L).

In the next data set the test system is M. abscessus. As to the kind of experiment: MIC determination (CLSI M24-A2). Format: cell-based, Mycobacterium abscessus. Conditions: Mycobacteroides abscessus, read-out: MIC. The method, then: as §1, §2
A further data set has as its system M. avium. As to the kind of experiment: MIC determination (CLSI M24-A2). Format: cell-based, Mycobacterium avium. Conditions: Mycobacterium avium, read-out: MIC. As to the method: as §1, §2
Another data set deals with M. smegmatis. Briefly: MIC determination (CLSI M24-A2). Format: cell-based, Mycobacterium smegmatis. As to the method: as §1, §2
For another data set, the system named is Mycobacteria pathogens. As to the kind of experiment: MIC against mycobacteria pathogens, summary over species. It counts as cell-based, nontuberculous Mycobacterium.
A further data set has as its system M. fortuitum. Briefly: MIC determination (CLSI M24-A2). Format: cell-based, Mycobacterium fortuitum. As to the method: as §1, §2
Another data set has as its system M. peregrinum. As to the kind of experiment: MIC determination (CLSI M24-A2). Format: cell-based, Mycobacterium peregrinum. The method, then:
as §1, §2

Another data set has as its system M. gordonae. Briefly: MIC determination (CLSI M24-A2). Format: cell-based, Mycobacterium gordonae. The settings on record: Mycobacterium gordonae, read-out: MIC. As to the method:
as §1, §2

Another data set deals with M. scrofulaceum. Briefly: MIC determination (CLSI M24-A2). Format: cell-based, Mycobacterium scrofulaceum. Conditions: Mycobacterium scrofulaceum, read-out: MIC. As to the method:
as §1, §2

A further data set relates to M. massiliense. Briefly: MIC determination (CLSI M24-A2). Format: cell-based, Mycobacterium massiliense. Conditions: Mycobacteroides abscessus, read-out: MIC. As to the method:
as §1, §2

Data set [2] concerns clinical isolates of M. abscessus complex. As to the kind of experiment: MIC against clinical isolates of M. abscessus complex. It counts as cell-based, M. abscessus and M. massiliense. The settings on record: Mycobacteroides abscessus, read-out: MIC.
Data set [3] has the same test system. As to the kind of experiment: MBC against clinical isolates of M. abscessus complex. Format: cell-based, M. abscessus and M. massiliense. The settings on record: for Classification: from MBC/MIC ratio.
Setting [4] is: Mycolicibacterium smegmatis, read-out: MIC.
The mark [5] stands for this setting: Mycolicibacterium fortuitum, read-out: MIC.
The mark [6] stands for this setting: Mycolicibacterium peregrinum, read-out: MIC.

For orientation: half-life means the time needed for the level to fall by half in the phase considered. By AUC(0-t) is commonly meant the area under the concentration-time curve up to a stated or last time point. Take `CC(C)C(=O)OC[C@H](COc1cccc2c1B(O)O[C@@H]2CN)OC(=O)C(C)C.Cl` [Example 2, (2S)-1-{[(3S)-3-(Aminomethyl)-1-hydroxy-1,3-dihydrobenzo[2,1-c][1,2]oxaborol-7-yl]oxy}-3-[(2-methylpropanoyl)oxy]propan-2-yl 2-methylpropanoate hydrochloride]: the AUClast in data set [1] (analyte Example 2 (prodrug), lung) was found to be 968 ng·h/g. Also, in data set [1] (plasma), the “conversion of prodrug to Example 4 in vivo” value was “rapidly converted to Example 4”. Moreover, the half-life in data set [1] (Balb/C, analyte Example 2 (prodrug), lung) is 6.42 h. The AUC(0-t) in data set [1] (Balb/C, analyte Example 2 (prodrug), plasma) stood at 0.0421 ng·h/mL.
The MIC is the smallest concentration in the dilution series that meets the test's criterion for growth inhibition. In the case of `CC(C)C(=O)OC[C@H](COc1cccc2c1B(O)O[C@@H]2CN)OC(=O)C(C)C.Cl` [drawing 20], the minimal inhibitory concentration (MIC) with M. intercelleulare, in the data set with M. abscessus and in the data set with M. avium was over 8 µg/mL each time.
In the case of `OB1OCc2cc(F)ccc21` [AN2690], the MIC with M. smegmatis (setting [4]), with M. intercelleulare, in the data set on M. fortuitum (setting [5]), with M. peregrinum (setting [6]), in the data set on M. abscessus and in the data set on M. avium was over 8 µg/mL each time. Further, the MIC in the data set with M. gordonae came to 8 µg/mL (≈ 52.7 µM); in the data set with M. scrofulaceum, 8 µg/mL (≈ 52.7 µM); in the data set on M. massiliense, 4 µg/mL (≈ 26.3 µM). For the same compound, the “activity against all NTM species tested” value with Mycobacteria pathogens (all NTM species tested) is recorded as “moderate or no activity”.
What is called MBC is the lowest tested concentration that kills the bacteria rather than only halting them. With `Cl.NC[C@H]1OB(O)c2c(OCCO)ccc(Cl)c21` [GSK656, reference compound], the minimum inhibitory concentration (MIC) in the data set with M. smegmatis was over 8 µg/mL; with M. smegmatis (setting [4]), at least 8 µg/mL; with M. intercelleulare, over 8 µg/mL; against M. fortuitum, over 8 µg/mL; with M. fortuitum (setting [5]), at least 8 µg/mL; against M. peregrinum, 8 µg/mL. Further, the MIC in the data set on M. peregrinum (setting [6]) is at least 8 µg/mL; in the data set on M. abscessus, 0.063 µg/mL; in data set [2] (clinical isolate A35), 0.063 µg/mL; in [2] (clinical isolate A51), 0.063 µg/mL; in [2] (clinical isolate A197), 0.063 µg/mL; in data set [2] (clinical isolate A213), 0.063 µg/mL. The MIC in data set [2] (clinical isolate A215) is 0.063 µg/mL; in data set [2] (clinical isolate A217) it was 0.063 µg/mL; in data set [2] (clinical isolate A222), 0.063 µg/mL; in data set [2] (clinical isolate A255) it was 0.063 µg/mL; in [2] (clinical isolate A268), 0.125 µg/mL; in data set [2] (clinical isolate A274), 0.125 µg/mL. Further, the MIC in data set [2] (clinical isolate A311) came out at 0.063 µg/mL; in data set [2] (clinical isolate A353) it was 0.125 µg/mL; in [2] (clinical isolate G73) it was 0.063 µg/mL; in data set [2] (clinical isolate G74), 0.063 µg/mL; in data set [2] (clinical isolate G87), 0.063 µg/mL; in data set [2] (clinical isolate G104), 0.063 µg/mL. The MIC in data set [2] (clinical isolate G110) was 0.063 µg/mL; in [2] (clinical isolate G164), 0.063 µg/mL; in data set [2] (clinical isolate G182), 0.063 µg/mL; with M. avium, over 8 µg/mL; with M. gordonae it was 0.5 µg/mL; in the data set with M. scrofulaceum, 4 µg/mL. Further, in the data set on M. massiliense, the MIC came out at 0.063 µg/mL. Moreover, the “fold less active than Example 4 (MIC)” value with Mycobacteria pathogens (M. fortuitum, M. peregrinum, M. smegmatis) was “more than 64 fold”. In addition, the “bactericidal/bacteriostatic classification over the isolates” value in data set [3] (20 clinical isolates of M. abscessus complex) was “bacteriostatic against all isolates”. Besides, the MBC in data set [3] (Mycobacteroides abscessus, clinical isolate A35, read-out: MBC) was over 2 µg/mL; in data set [3] (Mycobacteroides abscessus, clinical isolate A51, read-out: MBC), over 2 µg/mL; in [3] (Mycobacteroides abscessus, clinical isolate A197, read-out: MBC), over 2 µg/mL; in data set [3] (Mycobacteroides abscessus, clinical isolate A213, read-out: MBC), 2 µg/mL; in [3] (Mycobacteroides abscessus, clinical isolate A215, read-out: MBC), 2 µg/mL; in data set [3] (Mycobacteroides abscessus, clinical isolate A217, read-out: MBC), 2 µg/mL. In addition, the MBC in data set [3] (Mycobacteroides abscessus, clinical isolate A255, read-out: MBC) is 2 µg/mL; in data set [3] (Mycobacteroides abscessus, clinical isolate A268, read-out: MBC), over 4 µg/mL; in data set [3] (Mycobacteroides abscessus, clinical isolate A274, read-out: MBC) it was over 4 µg/mL; in data set [3] (Mycobacteroides abscessus, clinical isolate A311, read-out: MBC), 1 µg/mL; in data set [3] (Mycobacteroides abscessus, clinical isolate A353, read-out: MBC), 2 µg/mL; in [3] (Mycobacteroides abscessus, clinical isolate G73, read-out: MBC), over 2 µg/mL. Besides, the MBC in data set [3] (Mycobacteroides abscessus, clinical isolate G74, read-out: MBC) was over 4 µg/mL; in data set [3] (Mycobacteroides abscessus, clinical isolate G87, read-out: MBC), over 2 µg/mL; in data set [3] (Mycobacteroides abscessus, clinical isolate G104, read-out: MBC) it was 2 µg/mL; in data set [3] (Mycobacteroides abscessus, clinical isolate G110, read-out: MBC), over 2 µg/mL; in [3] (Mycobacteroides abscessus, clinical isolate G164, read-out: MBC), over 2 µg/mL; in [3] (Mycobacteroides abscessus, clinical isolate G182, read-out: MBC), over 2 µg/mL. In addition, the MBC result in data set [3] (clinical isolate A222) is listed as “>>”. The Classification entry in data set [3] (clinical isolate A35), in data set [3] (clinical isolate A51), in data set [3] (clinical isolate A197), in [3] (clinical isolate A213), in data set [3] (clinical isolate A215) and in data set [3] (clinical isolate A217) was “Bacteriostatic (bacteriostatic if the ratio was >4)” throughout. The Classification result in [3] (clinical isolate A222), in data set [3] (clinical isolate A232), in data set [3] (clinical isolate A255), in data set [3] (clinical isolate A268), in data set [3] (clinical isolate A274) and in [3] (clinical isolate A311) was “Bacteriostatic (bacteriostatic if the ratio was >4)” throughout. Also, the Classification entry in data set [3] (clinical isolate A353), in [3] (clinical isolate G73), in [3] (clinical isolate G74), in [3] (clinical isolate G87), in [3] (clinical isolate G104) and in [3] (clinical isolate G110) was “Bacteriostatic (bacteriostatic if the ratio was >4)” each time. For the same compound, the Classification entry in [3] (clinical isolate G164) and in data set [3] (clinical isolate G182) was “Bacteriostatic (bacteriostatic if the ratio was >4)” throughout.
